Results taken from patent US10766869B2, “Triazoles for the treatment of demyelinating dieases” (Vertex Pharmaceuticals Incorporated, priority 2015, dated 2020).
Where two headings read alike, the source gives them in different places.

Tested on: primary rat mixed cortical cells
Assay: In vitro myelination assay (MBP positive myelin strands, fold myelin pixels above background)
Type: cell-based
Conditions: Rattus norvegicus; for fold induction at 1 µM: 1.0 μM compound; for fold induction at 10 µM: 10.0 μM compound
How it was run: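 Fourteen-day treatment of primary P1 rat mixed cortical cultures, re-dosed at days 6 and 10, at 1.0 μM and 10.0 μM. MBP immunofluorescence was imaged at 10× and myelin strands quantified by software, normalised to untreated wells as fold above background.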

[1] = read-out: Fold myelin pixels above background relative to baseline of no added compound
[2] = relative to baseline of no added compound, read-out: Fold myelin pixels above background, 1.0 μM
[3] = relative to baseline of no added compound, read-out: Fold myelin pixels above background, 10.0 μM
[4] = relative to baseline of no added compound, read-out: Fold myelin pixels above background

Row | Structure (SMILES) | fold induction at 1 µM [2] | fold induction at 10 µM [3] | fold induction at 1 µM [4] | fold induction at 10 µM [4] | also measured
1 | Cc1cc(Nc2ncn(-c3cc(F)cc(F)c3)n2)cc(N2CCN(C3CCCCC3O)CC2)c1 (centres unmarked) [Compound 878, 2-[4-[3-[[1-(3,5-difluorophenyl)-1,2,4-triazol-3-yl]amino]-5-methyl-phenyl]piperazin-1-yl]cyclohexanol] |  |  |  |  | fold induction at 1 µM [1]: 10 to 100; fold induction at 10 µM [1]: ≤ 1
2 | COCC1CN(c2cc(C)cc(Nc3ncn(-c4cc(F)cc(F)c4)n3)c2)CCO1 (centres unmarked) [Compound 325, 1-(3,5-difluorophenyl)-N-[3-[2-(methoxymethyl)morpholin-4-yl]-5-methyl-phenyl]-1,2,4-triazol-3-amine] | 10 to 100 | 10 to 100 |  |  | 
3 | Fc1cc(Nc2ncn(-c3ccccc3)n2)cc(C2CCNC2)c1 (centres unmarked) [Compound 452, N-(3-fluoro-5-pyrrolidin-3-yl-phenyl)-1-phenyl-1,2,4-triazol-3-amine] |  |  | 10 to 100 | ≤ 1 | 
4 | Cc1cc(Nc2ncn(-c3ccccc3)n2)cc(N2CCN(C3CCCC3)CC2)c1 [Compound 87, N-[3-(4-cyclopentylpiperazin-1-yl)-5-methyl-phenyl]-1-phenyl-1,2,4-triazol-3-amine] | 100 to 1000 | 100 to 1000 |  |  | 
5 | Cc1cc(Nc2ncn(-c3ccnnc3)n2)cc(N2CCN(C)CC2)c1 [Compound 399, N-[3-methyl-5-(4-methylpiperazin-1-yl)phenyl]-1-pyridazin-4-yl-1,2,4-triazol-3-amine] |  |  | 10 to 100 | 1 to 10 | 
6 | Cc1cc(Nc2ncn(-c3cc(F)cc(F)c3)n2)cc(N2CC(CC(C)C)N3CCC[C@@H]3C2)c1 (stereo partly drawn) [Compound 29, N-[3-[(8aR)-4-isobutyl-3,4,6,7,8,8a-hexahydro-1H-pyrrolo[1,2-a]pyrazin-2-yl]-5-methyl-phenyl]-1-(3,5-difluorophenyl)-1,2,4-triazol-3-amine] | ≤ 1 | ≤ 1 |  |  | 
7 | Cc1cc(Nc2ncn(-c3cc(F)cc(F)c3)n2)cc(N2CC[C@H](N3CCCC3)C2)c1 [Compound 986, 1-(3,5-difluorophenyl)-N-[3-methyl-5-[(3S)-3-pyrrolidin-1-ylpyrrolidin-1-yl]phenyl]-1,2,4-triazol-3-amine] |  |  |  |  | fold induction at 1 µM [1]: 1 to 10; fold induction at 10 µM [1]: ≤ 1
8 | Cc1cc(Nc2ncn(-c3cc(F)cc(F)c3)n2)cc([C@]2(C)CN(C)C(=O)O2)c1 (single isomer, unassigned) [Compound 796] |  |  |  |  | fold induction at 1 µM [1]: 10 to 100; fold induction at 10 µM [1]: ≤ 1
9 | O=c1cc(-n2cnc(Nc3cc(C(F)F)cc(N4CCN(C5COC5)CC4)c3)n2)cc[nH]1 [Compound 163, 4-[3-[3-(difluoromethyl)-5-[4-(oxetan-3-yl)piperazin-1-yl]anilino]-1,2,4-triazol-1-yl]-1H-pyridin-2-one] | 100 to 1000 | ≤ 1 |  |  | 
10 | Cc1cc(Nc2ncn(-c3ccncc3)n2)cc(N2CCOCC2)c1 [Compound 84, N-(3-methyl-5-morpholino-phenyl)-1-(4-pyridyl)-1,2,4-triazol-3-amine] | 1000 to 10000 | 10 to 100 |  |  | 
11 | Cc1cc(Nc2ncn(-c3cc(F)cc(F)c3)n2)cc(N2CCN(CCN(C)C)CC2)c1 [Compound 809, 1-(3,5-difluorophenyl)-N-[3-[4-[2-(dimethylamino)ethyl]piperazin-1-yl]-5-methyl-phenyl]-1,2,4-triazol-3-amine] |  |  |  |  | fold induction at 1 µM [1]: 1 to 10; fold induction at 10 µM [1]: ≤ 1
12 | Cc1cc(Nc2ncn(-c3ccccc3)n2)cc(Nc2ncn(-c3ccccc3)n2)c1 [Compound 681, 5-methyl-N1,N3-bis(1-phenyl-1,2,4-triazol-3-yl)benzene-1,3-diamine] |  |  | 10 to 100 | 1 to 10 | 
13 | Cc1cc(Nc2ncn(-c3cc(F)cc(F)c3)n2)c(F)c(OC2CCOC2)c1 (single isomer, unassigned) [Compound 1028, 1-(3,5-difluorophenyl)-N-(2-fluoro-5-methyl-3-tetrahydrofuran-3-yloxy-phenyl)-1,2,4-triazol-3-amine] |  |  |  |  | fold induction at 1 µM [1]: 10 to 100; fold induction at 10 µM [1]: 1 to 10
14 | Cc1cc(N2CCN(C3COC3)CC2)cc(Nc2ncn(-c3ccccc3)n2)c1C [Compound 237, N-[2,3-dimethyl-5-[4-(oxetan-3-yl)piperazin-1-yl]phenyl]-1-phenyl-1,2,4-triazol-3-amine] | 1000 to 10000 | 100 to 1000 |  |  | 
15 | Cc1cc(Nc2ncn(-c3ccccc3)n2)cc(N2C[C@@H]3C[C@H]2CN3C2COC2)c1 [Compound 219, N-[3-methyl-5-[(1S,4S)-2-(oxetan-3-yl)-2,5-diazabicyclo[2.2.1]heptan-5-yl]phenyl]-1-phenyl-1,2,4-triazol-3-amine] | 100 to 1000 | 1 to 10 |  |  | 
16 | Cc1cc(Nc2ncn(-c3cc(F)cc(F)c3)n2)cc(N2CCCN(C3COC3)CC2)c1 [Compound 637, 1-(3,5-difluorophenyl)-N-[3-methyl-5-[4-(oxetan-3-yl)-1,4-diazepan-1-yl]phenyl]-1,2,4-triazol-3-amine] |  |  | 100 to 1000 | ≤ 1 | 

Row | Structure (SMILES) | fold induction at 1 µM [2] | fold induction at 10 µM [3] | fold induction at 1 µM [4] | fold induction at 10 µM [4] | also measured
17 | CN1CCN(c2cc(F)cc(Nc3ncn(-c4ccccc4)n3)c2)CC1 [Compound 213, N-[3-fluoro-5-(4-methylpiperazin-1-yl)phenyl]-1-phenyl-1,2,4-triazol-3-amine] | 100 to 1000 | ≤ 1 |  |  | 
18 | Cc1cc(Nc2ncn(-c3cc(F)cc(F)c3)n2)cc(C2CCCN(C)C2)c1 (centres unmarked) [Compound 328, 1-(3,5-difluorophenyl)-N-[3-methyl-5-(1-methyl-3-piperidyl)phenyl]-1,2,4-triazol-3-amine] | 100 to 1000 | 100 to 1000 |  |  | 
19 | Cc1cc(Nc2ncn(-c3ccccc3)n2)cc(N2CCC(C)(O)C2)c1 (centres unmarked) [Compound 6] | 100 to 1000 | 10 to 100 |  |  | 
20 | Cc1cc(OCC(=O)N2CCCC2)cc(Nc2ncn(-c3cc(F)cc(F)c3)n2)c1C [Compound 965, 2-[3-[[1-(3,5-difluorophenyl)-1,2,4-triazol-3-yl]amino]-4,5-dimethyl-phenoxy]-1-pyrrolidin-1-yl-ethanone] |  |  |  |  | fold induction at 1 µM [1]: 10 to 100; fold induction at 10 µM [1]: 10 to 100
21 | Cc1cc(Nc2ncn(-c3cc(F)cc(F)c3)n2)cc(N2CC(C(=O)N3CCOCC3)C2)c1 [Compound 690, [1-[3-[[1-(3,5-difluorophenyl)-1,2,4-triazol-3-yl]amino]-5-methyl-phenyl]azetidin-3-yl]-morpholino-methanone] |  |  | 1 to 10 | 10 to 100 | 
22 | CCOCCOC1CCN(c2cc(C)cc(Nc3ncn(-c4cc(F)cc(F)c4)n3)c2)CC1 [Compound 962, 1-(3,5-difluorophenyl)-N-[3-[4-(2-ethoxyethoxy)-1-piperidyl]-5-methyl-phenyl]-1,2,4-triazol-3-amine] |  |  |  |  | fold induction at 1 µM [1]: 1 to 10; fold induction at 10 µM [1]: 1 to 10
23 | Cc1cc(Nc2ncn(-c3cc(F)cc(F)c3)n2)nc(N2CCN([C@H]3CCOC3)CC2)c1 (single isomer, unassigned) [Compound 740] |  |  | 10 to 100 | 10 to 100 | 
24 | Cc1cc(Nc2ncn(-c3cc(F)cc(F)c3)n2)cc(C2CCCN(C3CC(C(=O)O)C3)C2)c1 (centres unmarked) [Compound 442, 3-[3-[3-[[1-(3,5-difluorophenyl)-1,2,4-triazol-3-yl]amino]-5-methyl-phenyl]-1-piperidyl]cyclobutanecarboxylic acid] |  |  | 10 to 100 | 10 to 100 | 
25 | CCc1cc(F)cc(-n2cnc(Nc3cc(C)cc(N4CCN(C)CC4)c3)n2)c1 [Compound 255, 1-(3-ethyl-5-fluoro-phenyl)-N-[3-methyl-5-(4-methylpiperazin-1-yl)phenyl]-1,2,4-triazol-3-amine] | 100 to 1000 | 100 to 1000 |  |  | 
26 | Cc1cc(Nc2ncn(-c3ccc(F)c(F)c3)n2)cc(OC2CCCN(C3COC3)C2)c1 (centres unmarked) [Compound 590, 1-(3,4-difluorophenyl)-N-[3-methyl-5-[[1-(oxetan-3-yl)-3-piperidyl]oxy]phenyl]-1,2,4-triazol-3-amine] |  |  | 10 to 100 | 1 to 10 | 
27 | Fc1cc(F)cc(-n2cnc(Nc3cc(Cl)cc(NC4COC4)c3)n2)c1 [Compound 705, 5-chloro-N3-[1-(3,5-difluorophenyl)-1,2,4-triazol-3-yl]-N1-(oxetan-3-yl)benzene-1,3-diamine] |  |  | 10 to 100 | 1 to 10 | 
28 | Cc1cc(Nc2ncn(-c3cc(F)cc(F)c3)n2)cc(NC2CCOC2)c1 (centres unmarked) [Compound 8, N3-[1-(3,5-difluorophenyl)-1,2,4-triazol-3-yl]-5-methyl-N1-tetrahydrofuran-3-yl-benzene-1,3-diamine] | 100 to 1000 | 1 to 10 |  |  | 
29 | Cc1cc(Nc2ncn(-c3cc(F)cc(F)c3)n2)cc(N2CCN(CC(F)(F)F)CC2)c1 [Compound 421, 1-(3,5-difluorophenyl)-N-[3-methyl-5-[4-(2,2,2-trifluoroethyl)piperazin-1-yl]phenyl]-1,2,4-triazol-3-amine] |  |  | 100 to 1000 | 100 to 1000 | 
30 | Cc1cc(NCCN2CC[S+]([O-])CC2)cc(Nc2ncn(-c3cc(F)cc(F)c3)n2)c1 [Compound 940, N1-[1-(3,5-difluorophenyl)-1,2,4-triazol-3-yl]-5-methyl-N3-[2-(1-oxo-1,4-thiazinan-4-yl)ethyl]benzene-1,3-diamine] |  |  |  |  | fold induction at 1 µM [1]: 10 to 100; fold induction at 10 µM [1]: 1 to 10
31 | Cc1cc(Nc2ncn(-c3cc(F)cc(F)c3)n2)cc(N2CCC(N3CCCC3)CC2)c1 [Compound 1038, 1-(3,5-difluorophenyl)-N-[3-methyl-5-(4-pyrrolidin-1-yl-1-piperidyl)phenyl]-1,2,4-triazol-3-amine] |  |  |  |  | fold induction at 1 µM [1]: 1 to 10; fold induction at 10 µM [1]: 10 to 100
